Assay results reported in publication PMC7696433, “Carbohydrate Hydrolase-Inhibitory Activity of Juice-Based Phenolic Extracts in Correlation to Their Anthocyanin/Copigment Profile” (Molecules, 2020).

Columns and labels:
[1] = molecular target: T1, porcine pancreatic α-amylase (Sus scrofa, UniProt P00690); test: In vitro α-amylase inhibition study (CNPG3 substrate, absorbance 405 nm); type: biochemical; conditions: 2 mM of single substance; mean ± SD, n = 3
T1 construct: α-amylase from porcine pancreas; purchased Sigma-Aldrich (Taufkirchen, Germany); host or cells: porcine pancreas
T1 sequence (P00690 16-511): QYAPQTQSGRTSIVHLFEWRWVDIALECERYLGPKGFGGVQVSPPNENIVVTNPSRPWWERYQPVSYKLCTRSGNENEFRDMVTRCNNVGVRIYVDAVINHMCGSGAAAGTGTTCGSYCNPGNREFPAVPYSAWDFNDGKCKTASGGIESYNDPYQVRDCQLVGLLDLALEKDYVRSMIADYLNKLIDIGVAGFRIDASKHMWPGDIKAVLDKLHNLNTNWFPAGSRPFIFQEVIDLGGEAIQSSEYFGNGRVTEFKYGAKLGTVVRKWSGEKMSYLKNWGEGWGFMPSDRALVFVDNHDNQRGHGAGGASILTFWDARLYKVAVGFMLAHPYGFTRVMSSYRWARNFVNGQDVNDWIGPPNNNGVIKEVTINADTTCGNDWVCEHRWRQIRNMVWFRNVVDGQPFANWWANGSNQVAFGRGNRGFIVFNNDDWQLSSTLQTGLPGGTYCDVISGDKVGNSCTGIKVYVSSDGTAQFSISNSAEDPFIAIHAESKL
Procedure: The α-amylase inhibition assay was based on a previously described spectrophotometric method. […] Briefly, 20 μL aliquots of the sample (in five different concentrations), the positive control, or the negative control were each mixed with 70 μL of 40 mM phosphate buffered saline (PBS) at pH 6.9 containing 30 U/mL of porcine pancreatic α-amylase and incubated in a 96-well microplate at 37 °C for 10 min. After pre-incubation, 100 μL of substrate solution (40 mM PBS with 4 mM 2-chloro-4-nitrophenyl-α-D-maltotrioside) was added, and the resulting mixtures were incubated at 37 °C for 8 min. Their absorbance was then measured at λ 405 nm using a microplate reader (Biotek, Bad Friedrichshall, Germany). Each sample was measured in triplicate.

[2] = tested on: α-glucosidase from Saccharomyces cerevisiae; test: In vitro α-glucosidase inhibition study (pNPG substrate, absorbance 405 nm); type: biochemical; conditions: 2 mM of single substance; mean ± SD, n = 3
Procedure: The α-glucosidase inhibition assay used 4-nitrophenyl-α-D-glucopyranoside as substrate. 20 μL aliquots of the sample (in five different concentrations) or negative and positive control solutions were each mixed with 70 μL enzyme solution (1 U/mL) in 0.1 M PBS (pH 6.8). After incubation at 25 °C for 10 min, 100 μL of 4 mM pNPG solution in PBS was added and incubated in a 96-well microplate for 5 min at 25 °C. The absorbance was measured at λ 405 nm using a microplate reader (Biotek, Bad Friedrichshall, Germany). Each sample was measured in triplicate.

Inhibition (%) of α-amylase [1] [%] | Inhibition (%) of α-glucosidase [2] [%] | SMILES
 | 7.8 ± 5.5 | OC[C@H]1O[C@@H](Oc2cc3c(O)cc(O)cc3[o+]c2-c2ccc(O)c(O)c2)[C@H](O)[C@@H](O)[C@@H]1O [cyanidin 3-glucoside]
 | 4.9 ± 5.2 | OC[C@H]1O[C@@H](Oc2cc3c(O[C@@H]4O[C@H](CO)[C@@H](O)[C@H](O)[C@H]4O)cc(O)cc3[o+]c2-c2ccc(O)c(O)c2)[C@H](O)[C@@H](O)[C@@H]1O [cyanidin 3,5-diglucoside]
7.6 ± 1.8 |  | C[C@@H]1O[C@@H](OC[C@H]2O[C@@H](Oc3cc4c(O)cc(O)cc4[o+]c3-c3ccc(O)c(O)c3)[C@H](O)[C@@H](O)[C@@H]2O)[C@H](O)[C@H](O)[C@H]1O [cyanidin 3-rutinoside]
18.7 ± 1.2 |  | Oc1cc(O)c2cc(O[C@@H]3OC[C@H](O)[C@H](O)[C@H]3O)c(-c3ccc(O)c(O)c3)[o+]c2c1 [cyanidin 3-arabinoside]
11.3 ± 0.5 |  | COc1cc(-c2[o+]c3cc(O)cc(O)c3cc2O[C@@H]2O[C@H](CO)[C@@H](O)[C@H](O)[C@H]2O)ccc1O [peonidin glucoside, Peonidin 3-glucoside]
7.7 ± 2.5 |  | COc1cc(-c2[o+]c3cc(O)cc(O)c3cc2O[C@@H]2O[C@H](CO)[C@@H](O)[C@H](O)[C@H]2O)cc(O)c1O [petunidin glucoside, Petunidin 3-glucoside]

Second part, the molecule before the results:

SMILES | Inhibition (%) of α-amylase [1] [%] | Inhibition (%) of α-glucosidase [2] [%]
O=C1OC[C@H]2OC(O)[C@H](O)[C@@H](O)[C@@H]2OC(=O)c2cc(O)c(O)c(O)c2-c2c(O)c(O)c3oc(=O)c4c(c(O)c(O)c5oc(=O)c2c3c54)-c2c1cc(O)c(O)c2O (mixture of isomers) [punicalin] | 3.8 ± 0.2 | 8.7 ± 0.6
O=C(/C=C/c1ccc(O)c(O)c1)O[C@H]1[C@H](O)C[C@](O)(C(=O)O)C[C@H]1O [4-caffeoylquinic acid] | 16.0 ± 3.1 | 4.5 ± 3.3
O=C1O[C@H]2[C@@H]3OC(=O)c4cc(O)c(O)c(O)c4-c4c(O)c(O)c5oc(=O)c6c(c(O)c(O)c7oc(=O)c4c5c76)-c4c(cc(O)c(O)c4O)C(=O)OC[C@H]3OC(O)[C@@H]2OC(=O)c2cc(O)c(O)c(O)c2-c2c1cc(O)c(O)c2O (mixture of isomers) [punicalagin] | 4.8 ± 2.6 | 11.5 ± 1.0
O=C(/C=C/c1ccc(O)c(O)c1)O[C@@H]1C[C@](O)(C(=O)O)C[C@@H](O)[C@H]1O [chlorogenic acid] | 20.3 ± 2.3 | 1.6 ± 3.1
O=c1c(O[C@@H]2O[C@H](CO)[C@@H](O)[C@H](O)[C@H]2O)c(-c2ccc(O)cc2)oc2cc(O)cc(O)c12 [kaempferol 3-glucoside] | 30.3 ± 2.2 | 13.2 ± 0.7
O=C(/C=C/c1ccc(O)c(O)c1)O[C@@H]1C[C@](O)(C(=O)O)C[C@@H](O)[C@H]1O [3-caffeoylquinic acid] | 13.8 ± 1.4 | 3.6 ± 2.2
COc1cc(-c2[o+]c3cc(O)cc(O)c3cc2O[C@@H]2O[C@H](CO)[C@@H](O)[C@H](O)[C@H]2O)cc(OC)c1O [malvidin glucoside, Malvidin 3-glucoside] | 9.1 ± 5.6 | 
O=C(/C=C/c1ccc(O)c(O)c1)O[C@@H](C(=O)O)[C@@H](O)C(=O)O [caftaric acid] | 11.5 ± 2.5 | 4.6 ± 2.2
OC[C@H]1O[C@@H](Oc2cc3c(O)cc(O)cc3[o+]c2-c2cc(O)c(O)c(O)c2)[C@H](O)[C@@H](O)[C@@H]1O [delphinidin glucoside, Delphinidin 3-glucoside] | 12.7 ± 1.9 | 
O=c1c(O[C@@H]2O[C@H](CO)[C@H](O)[C@H](O)[C@H]2O)c(-c2ccc(O)c(O)c2)oc2cc(O)cc(O)c12 [quercetin 3-galactoside] | 28.0 ± 1.0 | 8.3 ± 1.2
Oc1cc(O)c2cc(O)c(-c3ccc(O)c(O)c3)[o+]c2c1 [Cyanidin] |  | 35.5 ± 2.4
O=c1oc2c(O)c(O)cc3c(=O)oc4c(O)c(O)cc1c4c23 [ellagic acid] | 11.0 ± 0.8 | 6.0 ± 0.8
